Source: ChEMBL document CHEMBL1909046, “DrugMatrix in vitro pharmacology data”

Molecular target: Mitogen-activated protein kinase 3 (Homo sapiens, UniProt P27361)
Assay: DRUGMATRIX: Protein Serine/Threonine Kinase, ERK1 enzyme inhibition (substrate: Myelin Basic Protein)
Set-up: species or system Escherichia coli
Conditions: Not Active = under 50% inhibition at 10 µM

Mitogen-activated protein kinase 3, sequence (P27361 whole entry): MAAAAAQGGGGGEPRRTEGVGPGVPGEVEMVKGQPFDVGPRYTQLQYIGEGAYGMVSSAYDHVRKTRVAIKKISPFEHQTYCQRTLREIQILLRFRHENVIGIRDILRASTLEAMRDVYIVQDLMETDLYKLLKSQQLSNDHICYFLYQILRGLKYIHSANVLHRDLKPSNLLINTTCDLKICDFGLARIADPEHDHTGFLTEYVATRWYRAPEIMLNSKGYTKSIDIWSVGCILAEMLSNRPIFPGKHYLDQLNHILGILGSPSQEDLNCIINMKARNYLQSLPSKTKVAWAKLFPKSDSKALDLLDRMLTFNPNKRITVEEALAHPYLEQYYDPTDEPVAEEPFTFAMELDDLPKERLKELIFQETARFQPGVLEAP

Compound | IC50
Clc1ccccc1C(c1ccccc1)(c1ccccc1)n1ccnc1 [CLOTRIMAZOLE] | Not Active
CC(C)(O)c1ccccc1CC[C@@H](SCC1(CC(=O)O)CC1)c1cccc(/C=C/c2ccc3ccc(Cl)cc3n2)c1 [MONTELUKAST] | Not Active
COC(=O)[C@@H]1[C@H]2C[C@H]3c4[nH]c5ccccc5c4CCN3C[C@@H]2CC[C@@H]1O [YOHIMBINE] | Not Active
COc1ccc(CCN2CCC(Nc3nc4ccccc4n3Cc3ccc(F)cc3)CC2)cc1 [ASTEMIZOLE] | Not Active
CN(C)CCCN1c2ccccc2CCc2ccc(Cl)cc21 [CLOMIPRAMINE] | Not Active

Molecular target: Acetylcholinesterase (Homo sapiens, UniProt P22303)
Sequence (P22303 whole entry): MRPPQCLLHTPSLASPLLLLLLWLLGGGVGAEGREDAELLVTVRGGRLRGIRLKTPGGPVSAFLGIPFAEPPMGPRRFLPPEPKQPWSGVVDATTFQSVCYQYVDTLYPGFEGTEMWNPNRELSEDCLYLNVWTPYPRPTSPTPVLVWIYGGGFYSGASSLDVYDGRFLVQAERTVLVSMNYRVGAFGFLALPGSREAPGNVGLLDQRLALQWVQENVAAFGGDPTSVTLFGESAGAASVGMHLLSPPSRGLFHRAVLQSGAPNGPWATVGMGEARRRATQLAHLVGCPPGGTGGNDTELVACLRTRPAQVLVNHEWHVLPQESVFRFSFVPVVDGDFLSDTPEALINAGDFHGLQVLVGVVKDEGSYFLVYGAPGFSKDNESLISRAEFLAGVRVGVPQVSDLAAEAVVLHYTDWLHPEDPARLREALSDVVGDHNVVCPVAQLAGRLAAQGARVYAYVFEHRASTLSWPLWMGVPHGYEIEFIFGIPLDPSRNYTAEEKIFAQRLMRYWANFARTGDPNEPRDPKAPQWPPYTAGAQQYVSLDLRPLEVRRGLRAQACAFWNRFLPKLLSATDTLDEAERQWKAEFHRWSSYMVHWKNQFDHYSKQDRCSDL
Assay: DRUGMATRIX: Acetylcholinesterase enzyme inhibition (substrate: acetylthiocholine)
Type: cell-based, HEK293
Conditions: Not Active = under 50% inhibition at 10 µM; read-out: IC50

Compound | IC50 [µM]
Clc1ccccc1C(c1ccccc1)(c1ccccc1)n1ccnc1 [CLOTRIMAZOLE] | 19.4

Same assay, conditions: hek293; Not Active = under 50% inhibition at 10 µM

Compound | IC50
CC(C)(O)c1ccccc1CC[C@@H](SCC1(CC(=O)O)CC1)c1cccc(/C=C/c2ccc3ccc(Cl)cc3n2)c1 [MONTELUKAST] | Not Active
COC(=O)[C@@H]1[C@H]2C[C@H]3c4[nH]c5ccccc5c4CCN3C[C@@H]2CC[C@@H]1O [YOHIMBINE] | Not Active
COc1ccc(CCN2CCC(Nc3nc4ccccc4n3Cc3ccc(F)cc3)CC2)cc1 [ASTEMIZOLE] | Not Active
CN(C)CCCN1c2ccccc2CCc2ccc(Cl)cc21 [CLOMIPRAMINE] | Not Active

Molecular target: T1, C-X-C chemokine receptor type 1 (Homo sapiens, UniProt P25024); further: in other assays of this panel Not Active means under 50% inhibition at 10 µM
T1 sequence (P25024 whole entry): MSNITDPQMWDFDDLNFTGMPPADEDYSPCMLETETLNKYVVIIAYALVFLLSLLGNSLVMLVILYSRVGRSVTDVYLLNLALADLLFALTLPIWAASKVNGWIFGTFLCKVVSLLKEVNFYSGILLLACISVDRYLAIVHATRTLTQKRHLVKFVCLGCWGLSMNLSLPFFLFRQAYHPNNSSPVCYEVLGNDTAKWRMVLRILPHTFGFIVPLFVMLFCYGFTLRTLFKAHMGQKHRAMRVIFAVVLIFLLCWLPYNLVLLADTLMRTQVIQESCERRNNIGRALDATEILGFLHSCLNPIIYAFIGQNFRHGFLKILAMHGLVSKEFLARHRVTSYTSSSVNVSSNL
Conditions: not given

Compound | IC50
Clc1ccccc1C(c1ccccc1)(c1ccccc1)n1ccnc1 [CLOTRIMAZOLE] | Not Active
CC(C)(O)c1ccccc1CC[C@@H](SCC1(CC(=O)O)CC1)c1cccc(/C=C/c2ccc3ccc(Cl)cc3n2)c1 [MONTELUKAST] | Not Active
COC(=O)[C@@H]1[C@H]2C[C@H]3c4[nH]c5ccccc5c4CCN3C[C@@H]2CC[C@@H]1O [YOHIMBINE] | Not Active
COc1ccc(CCN2CCC(Nc3nc4ccccc4n3Cc3ccc(F)cc3)CC2)cc1 [ASTEMIZOLE] | Not Active
CN(C)CCCN1c2ccccc2CCc2ccc(Cl)cc21 [CLOMIPRAMINE] | Not Active

Molecular target: Protein phosphatase 3 catalytic subunit alpha (Homo sapiens, UniProt Q08209);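 further: inhibition of calcineurin (PP2B) enzyme activity, measured with DiFMUP as the substrate; in other assays of this panel Not Active means under 50% inhibition at 10 µM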
Set-up: species or system Escherichia coli
Conditions: not given

Compound | IC50
Clc1ccccc1C(c1ccccc1)(c1ccccc1)n1ccnc1 [CLOTRIMAZOLE] | Not Active
CC(C)(O)c1ccccc1CC[C@@H](SCC1(CC(=O)O)CC1)c1cccc(/C=C/c2ccc3ccc(Cl)cc3n2)c1 [MONTELUKAST] | Not Active
COC(=O)[C@@H]1[C@H]2C[C@H]3c4[nH]c5ccccc5c4CCN3C[C@@H]2CC[C@@H]1O [YOHIMBINE] | Not Active
COc1ccc(CCN2CCC(Nc3nc4ccccc4n3Cc3ccc(F)cc3)CC2)cc1 [ASTEMIZOLE] | Not Active
CN(C)CCCN1c2ccccc2CCc2ccc(Cl)cc21 [CLOMIPRAMINE] | Not Active

Molecular target: T2, Substance-K receptor (Homo sapiens, UniProt P21452); further: in other assays of this panel Not Active means under 50% inhibition at 10 µM
T2 sequence (P21452 whole entry): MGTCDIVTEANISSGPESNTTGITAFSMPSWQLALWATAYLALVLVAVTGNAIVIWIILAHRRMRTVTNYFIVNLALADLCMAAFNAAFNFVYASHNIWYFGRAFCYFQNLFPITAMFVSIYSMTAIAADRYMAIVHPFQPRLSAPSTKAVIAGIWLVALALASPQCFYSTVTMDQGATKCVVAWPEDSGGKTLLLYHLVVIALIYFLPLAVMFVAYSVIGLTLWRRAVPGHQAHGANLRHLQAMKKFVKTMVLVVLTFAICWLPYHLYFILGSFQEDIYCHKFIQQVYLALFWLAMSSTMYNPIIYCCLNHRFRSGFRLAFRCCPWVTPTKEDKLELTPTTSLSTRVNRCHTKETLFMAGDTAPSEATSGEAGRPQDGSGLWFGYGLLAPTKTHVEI
Type: cell membranes, CHO, Membrane
Conditions: cho

Compound | IC50
COC(=O)[C@@H]1[C@H]2C[C@H]3c4[nH]c5ccccc5c4CCN3C[C@@H]2CC[C@@H]1O [YOHIMBINE] | Not Active
CN(C)CCCN1c2ccccc2CCc2ccc(Cl)cc21 [CLOMIPRAMINE] | Not Active

Same assay, conditions: read-out: IC50

Compound | IC50 [µM]
Clc1ccccc1C(c1ccccc1)(c1ccccc1)n1ccnc1 [CLOTRIMAZOLE] | 10.1
CC(C)(O)c1ccccc1CC[C@@H](SCC1(CC(=O)O)CC1)c1cccc(/C=C/c2ccc3ccc(Cl)cc3n2)c1 [MONTELUKAST] | 3.82
COc1ccc(CCN2CCC(Nc3nc4ccccc4n3Cc3ccc(F)cc3)CC2)cc1 [ASTEMIZOLE] | 2.99

Same assay, conditions: read-out: Ki

Compound | Ki [µM]
Clc1ccccc1C(c1ccccc1)(c1ccccc1)n1ccnc1 [CLOTRIMAZOLE] | 3.38
CC(C)(O)c1ccccc1CC[C@@H](SCC1(CC(=O)O)CC1)c1cccc(/C=C/c2ccc3ccc(Cl)cc3n2)c1 [MONTELUKAST] | 1.27
COc1ccc(CCN2CCC(Nc3nc4ccccc4n3Cc3ccc(F)cc3)CC2)cc1 [ASTEMIZOLE] | 0.995

Test system: not listed separately
Assay: DRUGMATRIX: GABAA, Chloride Channel, TBOB radioligand binding (ligand: [3H] TBOB)
Type: cell membranes, Rattus norvegicus, Wistar, Cerebral cortex, Membrane
Conditions: Not Active = under 50% inhibition at 10 µM

Compound | IC50 | Ki
COC(=O)[C@@H]1[C@H]2C[C@H]3c4[nH]c5ccccc5c4CCN3C[C@@H]2CC[C@@H]1O [YOHIMBINE] | Not Active | Not Active

Molecular target: T3, B2 bradykinin receptor (Homo sapiens, UniProt P30411); further: in other assays of this panel Not Active means under 50% inhibition at 10 µM
T3 sequence (P30411 whole entry): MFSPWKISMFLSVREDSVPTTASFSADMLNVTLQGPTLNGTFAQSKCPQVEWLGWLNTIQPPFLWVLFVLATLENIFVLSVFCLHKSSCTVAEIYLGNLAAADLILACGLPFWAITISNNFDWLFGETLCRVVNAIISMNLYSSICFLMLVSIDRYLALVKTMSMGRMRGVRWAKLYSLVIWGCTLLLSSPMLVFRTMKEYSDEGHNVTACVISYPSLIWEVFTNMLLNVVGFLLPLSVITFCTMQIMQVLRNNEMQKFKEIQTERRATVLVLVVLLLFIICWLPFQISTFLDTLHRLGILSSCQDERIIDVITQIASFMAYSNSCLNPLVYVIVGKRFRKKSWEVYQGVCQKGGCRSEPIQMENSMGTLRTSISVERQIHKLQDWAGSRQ
Type: cell membranes, Membrane
Conditions: chem-1

Compound | IC50
Clc1ccccc1C(c1ccccc1)(c1ccccc1)n1ccnc1 [CLOTRIMAZOLE] | Not Active
CC(C)(O)c1ccccc1CC[C@@H](SCC1(CC(=O)O)CC1)c1cccc(/C=C/c2ccc3ccc(Cl)cc3n2)c1 [MONTELUKAST] | Not Active
COC(=O)[C@@H]1[C@H]2C[C@H]3c4[nH]c5ccccc5c4CCN3C[C@@H]2CC[C@@H]1O [YOHIMBINE] | Not Active
COc1ccc(CCN2CCC(Nc3nc4ccccc4n3Cc3ccc(F)cc3)CC2)cc1 [ASTEMIZOLE] | Not Active
CN(C)CCCN1c2ccccc2CCc2ccc(Cl)cc21 [CLOMIPRAMINE] | Not Active

Molecular target: Cannabinoid receptor 1 (Homo sapiens, UniProt P21554); further: in other assays of this panel Not Active means under 50% inhibition at 10 µM
Sequence (P21554 whole entry): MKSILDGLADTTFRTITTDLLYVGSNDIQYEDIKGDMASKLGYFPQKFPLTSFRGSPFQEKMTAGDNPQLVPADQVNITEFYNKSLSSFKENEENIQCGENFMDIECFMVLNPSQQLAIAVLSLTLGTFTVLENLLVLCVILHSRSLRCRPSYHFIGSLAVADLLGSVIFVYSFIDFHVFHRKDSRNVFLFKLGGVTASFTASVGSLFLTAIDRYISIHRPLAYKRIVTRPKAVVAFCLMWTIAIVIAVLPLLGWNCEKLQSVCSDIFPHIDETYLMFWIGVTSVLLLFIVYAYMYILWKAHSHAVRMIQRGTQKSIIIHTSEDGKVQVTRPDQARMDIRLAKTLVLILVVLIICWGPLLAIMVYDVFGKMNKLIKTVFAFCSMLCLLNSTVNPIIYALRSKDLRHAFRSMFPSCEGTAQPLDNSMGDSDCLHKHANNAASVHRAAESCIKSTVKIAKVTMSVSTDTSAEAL
Type: cell membranes, Membrane
Conditions: chem-1

Compound | IC50
Clc1ccccc1C(c1ccccc1)(c1ccccc1)n1ccnc1 [CLOTRIMAZOLE] | Not Active
CC(C)(O)c1ccccc1CC[C@@H](SCC1(CC(=O)O)CC1)c1cccc(/C=C/c2ccc3ccc(Cl)cc3n2)c1 [MONTELUKAST] | Not Active
COC(=O)[C@@H]1[C@H]2C[C@H]3c4[nH]c5ccccc5c4CCN3C[C@@H]2CC[C@@H]1O [YOHIMBINE] | Not Active
COc1ccc(CCN2CCC(Nc3nc4ccccc4n3Cc3ccc(F)cc3)CC2)cc1 [ASTEMIZOLE] | Not Active
CN(C)CCCN1c2ccccc2CCc2ccc(Cl)cc21 [CLOMIPRAMINE] | Not Active

Molecular target: Adenosine receptor A2a (Homo sapiens, UniProt P29274)
Sequence (P29274 whole entry): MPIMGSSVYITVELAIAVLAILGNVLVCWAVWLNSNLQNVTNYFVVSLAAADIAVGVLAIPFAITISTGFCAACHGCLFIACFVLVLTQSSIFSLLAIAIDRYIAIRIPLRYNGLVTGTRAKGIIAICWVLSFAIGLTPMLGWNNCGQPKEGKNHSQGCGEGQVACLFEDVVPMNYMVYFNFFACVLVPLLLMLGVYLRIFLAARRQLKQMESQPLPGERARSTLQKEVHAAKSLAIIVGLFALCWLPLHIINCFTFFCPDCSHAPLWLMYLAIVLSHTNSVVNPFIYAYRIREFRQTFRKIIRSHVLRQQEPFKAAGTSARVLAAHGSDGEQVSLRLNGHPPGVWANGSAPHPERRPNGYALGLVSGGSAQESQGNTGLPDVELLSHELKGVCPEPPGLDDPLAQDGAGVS
Assay: DRUGMATRIX: Adenosine A2A radioligand binding (ligand: […])
Type: cell membranes, HEK293, Membrane
Conditions: hek293; Not Active = under 50% inhibition at 10 µM

Compound | IC50
CC(C)(O)c1ccccc1CC[C@@H](SCC1(CC(=O)O)CC1)c1cccc(/C=C/c2ccc3ccc(Cl)cc3n2)c1 [MONTELUKAST] | Not Active
COC(=O)[C@@H]1[C@H]2C[C@H]3c4[nH]c5ccccc5c4CCN3C[C@@H]2CC[C@@H]1O [YOHIMBINE] | Not Active
COc1ccc(CCN2CCC(Nc3nc4ccccc4n3Cc3ccc(F)cc3)CC2)cc1 [ASTEMIZOLE] | Not Active
CN(C)CCCN1c2ccccc2CCc2ccc(Cl)cc21 [CLOMIPRAMINE] | Not Active

Molecular target: Nitric oxide synthase 1 (Rattus norvegicus, UniProt P29476); further: in other assays of this panel Not Active means under 50% inhibition at 10 µM
Sequence (P29476 whole entry): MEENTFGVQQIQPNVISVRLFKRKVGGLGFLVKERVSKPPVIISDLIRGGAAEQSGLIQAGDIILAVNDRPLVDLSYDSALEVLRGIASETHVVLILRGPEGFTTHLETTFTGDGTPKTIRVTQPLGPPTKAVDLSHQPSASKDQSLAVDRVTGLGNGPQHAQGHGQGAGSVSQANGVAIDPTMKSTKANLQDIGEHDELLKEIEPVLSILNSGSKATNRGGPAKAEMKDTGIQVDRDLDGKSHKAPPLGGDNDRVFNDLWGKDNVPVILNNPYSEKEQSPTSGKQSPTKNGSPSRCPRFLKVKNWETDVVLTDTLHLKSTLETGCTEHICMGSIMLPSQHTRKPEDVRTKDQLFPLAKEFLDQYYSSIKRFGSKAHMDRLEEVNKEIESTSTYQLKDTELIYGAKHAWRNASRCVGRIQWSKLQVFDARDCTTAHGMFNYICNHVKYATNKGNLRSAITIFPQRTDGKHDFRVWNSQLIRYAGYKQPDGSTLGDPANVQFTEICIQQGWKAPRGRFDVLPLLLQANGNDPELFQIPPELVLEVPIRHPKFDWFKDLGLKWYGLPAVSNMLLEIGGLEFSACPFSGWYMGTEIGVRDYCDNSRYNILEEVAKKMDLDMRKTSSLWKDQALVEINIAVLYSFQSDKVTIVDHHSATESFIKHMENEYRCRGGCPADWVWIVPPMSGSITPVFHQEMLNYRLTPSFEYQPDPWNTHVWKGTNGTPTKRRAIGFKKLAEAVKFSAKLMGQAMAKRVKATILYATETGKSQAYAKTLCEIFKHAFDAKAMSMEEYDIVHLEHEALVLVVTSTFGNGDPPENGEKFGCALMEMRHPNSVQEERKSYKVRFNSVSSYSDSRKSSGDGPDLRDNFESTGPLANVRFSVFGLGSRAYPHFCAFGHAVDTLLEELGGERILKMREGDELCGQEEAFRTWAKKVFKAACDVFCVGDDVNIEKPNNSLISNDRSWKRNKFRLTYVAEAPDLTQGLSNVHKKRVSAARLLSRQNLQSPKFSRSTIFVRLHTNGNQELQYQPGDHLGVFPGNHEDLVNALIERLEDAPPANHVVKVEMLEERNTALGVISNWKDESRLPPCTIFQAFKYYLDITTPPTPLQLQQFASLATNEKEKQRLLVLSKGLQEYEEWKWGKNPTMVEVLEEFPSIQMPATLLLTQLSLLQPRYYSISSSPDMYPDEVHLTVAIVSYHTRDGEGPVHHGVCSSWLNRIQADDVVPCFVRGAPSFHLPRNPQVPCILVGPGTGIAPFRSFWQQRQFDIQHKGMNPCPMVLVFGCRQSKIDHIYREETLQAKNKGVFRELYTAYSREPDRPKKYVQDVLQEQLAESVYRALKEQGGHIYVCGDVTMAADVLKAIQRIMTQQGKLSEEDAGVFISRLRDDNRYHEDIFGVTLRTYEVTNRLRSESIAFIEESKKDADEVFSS
Type: tissue-based, Cerebellum
Conditions: not given

Compound | IC50
Clc1ccccc1C(c1ccccc1)(c1ccccc1)n1ccnc1 [CLOTRIMAZOLE] | Not Active
CC(C)(O)c1ccccc1CC[C@@H](SCC1(CC(=O)O)CC1)c1cccc(/C=C/c2ccc3ccc(Cl)cc3n2)c1 [MONTELUKAST] | Not Active
COC(=O)[C@@H]1[C@H]2C[C@H]3c4[nH]c5ccccc5c4CCN3C[C@@H]2CC[C@@H]1O [YOHIMBINE] | Not Active
COc1ccc(CCN2CCC(Nc3nc4ccccc4n3Cc3ccc(F)cc3)CC2)cc1 [ASTEMIZOLE] | Not Active
CN(C)CCCN1c2ccccc2CCc2ccc(Cl)cc21 [CLOMIPRAMINE] | Not Active

Test system: not listed separately
Assay: DRUGMATRIX: Potassium Channel [KATP] radioligand binding (ligand: [3H] Glyburide)
Type: cell membranes, Membrane
Conditions: hit-t15; Not Active = under 50% inhibition at 10 µM

Compound | IC50 | Ki
COC(=O)[C@@H]1[C@H]2C[C@H]3c4[nH]c5ccccc5c4CCN3C[C@@H]2CC[C@@H]1O [YOHIMBINE] | Not Active | Not Active

Test system: not listed separately
Assay: DRUGMATRIX: Platelet-Derived Growth Factor (PDGF) radioligand binding (ligand: [125I] PDGF)
Type: cell-based
Conditions: nih3t3; Not Active = under 50% inhibition at 10 µM

Compound | IC50 | Ki
COC(=O)[C@@H]1[C@H]2C[C@H]3c4[nH]c5ccccc5c4CCN3C[C@@H]2CC[C@@H]1O [YOHIMBINE] | Not Active | Not Active

Molecular target: cGMP-specific 3',5'-cyclic phosphodiesterase (Homo sapiens, UniProt O76074)
Assay: DRUGMATRIX: Phosphodiesterase PDE5 enzyme inhibition (substrate: [3H]cGMP + cGMP)
Type: tissue-based, Platelet
Conditions: platelet; Not Active = under 50% inhibition at 10 µM

Compound | IC50
Clc1ccccc1C(c1ccccc1)(c1ccccc1)n1ccnc1 [CLOTRIMAZOLE] | Not Active
CC(C)(O)c1ccccc1CC[C@@H](SCC1(CC(=O)O)CC1)c1cccc(/C=C/c2ccc3ccc(Cl)cc3n2)c1 [MONTELUKAST] | Not Active
COC(=O)[C@@H]1[C@H]2C[C@H]3c4[nH]c5ccccc5c4CCN3C[C@@H]2CC[C@@H]1O [YOHIMBINE] | Not Active
COc1ccc(CCN2CCC(Nc3nc4ccccc4n3Cc3ccc(F)cc3)CC2)cc1 [ASTEMIZOLE] | Not Active
CN(C)CCCN1c2ccccc2CCc2ccc(Cl)cc21 [CLOMIPRAMINE] | Not Active
